Assay results as given in article PMC4109893 (MedChemComm, 2014).
Where two headings read alike, the source gives them in different places. Blank lines part the entries; values can stand above or below the compound they belong to.

System: mammalian GPAT
Assay: GPAT inhibition in vitro
Format: biochemical
Conditions: for IC50: read-out: IC50 (µM) ± SD; for fold increase in inhibitory activity compared to 1c: relative to 1c; for fold decrease in inhibition compared to corresponding linker-free analog: 15a vs 13d, 18b vs 12h

Structure (SMILES): CCCCCCCCS(=O)(=O)Nc1ccccc1C(=O)O [Compound 1c, 2-(octanesulfonamido)benzoic acid]
inhibitory activity against GPAT (in words) (in vitro): comparable to 1b

IC50 (GPAT inhibition by 4-substituted derivatives (Table 1)): 63.1 ± 5.5 µM
Structure (SMILES): CCCCCCCCS(=O)(=O)Nc1cc(-c2ccccc2O)ccc1C(=O)O [Compound 12k]

IC50 (GPAT inhibition by 5-substituted derivatives (Table 2)): 14.4 ± 1.3 µM
Structure (SMILES): CCCCCCCCS(=O)(=O)Nc1ccc(-c2ccccc2Cl)cc1C(=O)O [Compound 13a]

Structure (SMILES): CCCCCCCCS(=O)(=O)Nc1ccc(-c2cccc(Cl)c2)cc1C(=O)O [Compound 13b]
fold increase in inhibitory activity compared to 1c: 2.9 fold

Structure (SMILES): CCCCCCCCS(=O)(=O)Nc1ccc(-c2ccc(CCCC)cc2)cc1C(=O)O [Compound 13d]
fold increase in inhibitory activity compared to 1c: 2.9 fold

Structure (SMILES): CCCCCCCCS(=O)(=O)Nc1ccc(-c2ccccc2-c2ccccc2)cc1C(=O)O [Compound 13e]
fold increase in inhibitory activity compared to 1c: 2.5 fold

Structure (SMILES): CCCCCCCCS(=O)(=O)Nc1cc(C(=O)c2ccc(-c3ccccc3)cc2)ccc1C(=O)O [Compound 14b, 4-([1,1'-biphenyl]-4-carbonyl)-2-(octanesulfonamido)benzoic acid]
fold increase in inhibitory activity compared to 1c: 3 fold | fold more potent inhibition compared to linker-free analog 13f (relative to 13f): 2 fold

Structure (SMILES): CCCCCCCCS(=O)(=O)Nc1ccc(C(=O)c2ccc(CCCC)cc2)cc1C(=O)O [Compound 15a]
fold decrease in inhibition compared to corresponding linker-free analog: 3.5 fold

Structure (SMILES): CCCCCCCCS(=O)(=O)Nc1cc(CCc2ccc(OC)cc2)ccc1C(=O)O [Compound 18b]
fold decrease in inhibition compared to corresponding linker-free analog: 3.2 fold
